Reference: PubChem BioAssay (NCI)
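Each compound was tested at five concentrations against cells in 96-well plates for 48 hours. GI50 marks 50% less growth. TGI: total growth inhibition.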

How the values were obtained:
Experiment in all cases: NCI-60 cell line screen, 48 h
SN12C renal = tested on: SN12C renal
SW-620 colon = tested on: SW-620 colon
OVCAR-8 ovarian = tested on: OVCAR-8 ovarian
HOP-62 NSCLC = tested on: HOP-62 NSCLC
NCI-H522 lung = tested on: NCI-H522 lung
U251 CNS = tested on: U251 CNS
SNB-75 CNS = tested on: SNB-75 CNS
DMS 114 small cell lung = tested on: DMS 114 small cell lung
MDA-MB-231 breast = tested on: MDA-MB-231 breast
BT-549 breast = tested on: BT-549 breast

COc1cc2ccc(=O)oc2cc1O
TGI (SN12C renal): 282 µM | TGI (SW-620 colon): > 625 µM | TGI (OVCAR-8 ovarian): 424 µM | TGI (HOP-62 NSCLC): 411 µM | TGI (NCI-H522 lung): 618 µM | TGI (U251 CNS): 455 µM | TGI (SNB-75 CNS): 175 µM | TGI (DMS 114 small cell lung): 335 µM

CC(NC(=O)C(NC(=O)CNC(=O)OC(C)(C)C)C(C)C)C(=O)Oc1c(Cl)c(Cl)c(Cl)c(Cl)c1Cl (stereo unspecified)
TGI (SN12C renal): 42 µM | TGI (SW-620 colon): 60 µM | TGI (OVCAR-8 ovarian): 40.8 µM | TGI (MDA-MB-231 breast): 42 µM | TGI (HOP-62 NSCLC): 35.7 µM | TGI (NCI-H522 lung): 45.2 µM | TGI (U251 CNS): 48.3 µM | TGI (SNB-75 CNS): 78.7 µM | TGI (BT-549 breast): 51.2 µM

O=[N+]([O-])c1ccc2sc(C=Nc3cnccn3)cc2c1
TGI (SN12C renal): > 100 µM | TGI (SW-620 colon): > 100 µM | TGI (OVCAR-8 ovarian): > 100 µM | TGI (MDA-MB-231 breast): > 100 µM | TGI (HOP-62 NSCLC): > 100 µM | TGI (NCI-H522 lung): > 100 µM | TGI (U251 CNS): > 100 µM | TGI (SNB-75 CNS): 63.5 µM | TGI (BT-549 breast): > 100 µM

NCCCN(CCCN(C(=O)Nc1ccccc1)c1ccccc1)C(=O)Nc1ccccc1
TGI (SN12C renal): > 100 µM | TGI (SW-620 colon): 52.3 µM | TGI (OVCAR-8 ovarian): > 100 µM | TGI (MDA-MB-231 breast): > 100 µM | TGI (HOP-62 NSCLC): 67.5 µM | TGI (NCI-H522 lung): 43.1 µM | TGI (U251 CNS): > 100 µM | TGI (SNB-75 CNS): 77.6 µM | TGI (BT-549 breast): > 100 µM

Cc1ccc(OCC2OC(n3cnc4nc(N)nc(Cl)c43)CC2Oc2ccc(C)cc2)cc1 (stereo unspecified)
TGI (SN12C renal): 41.4 µM | TGI (SW-620 colon): > 100 µM | TGI (OVCAR-8 ovarian): 50 µM | TGI (MDA-MB-231 breast): > 100 µM | TGI (HOP-62 NSCLC): 52.6 µM | TGI (NCI-H522 lung): 47.8 µM | TGI (U251 CNS): > 100 µM | TGI (SNB-75 CNS): 30.4 µM | TGI (BT-549 breast): > 100 µM

OC1(c2ccccc2)CCN(Cc2c[nH]c3ccccc23)CC1
TGI (SN12C renal): > 100 µM | TGI (SW-620 colon): > 100 µM | TGI (OVCAR-8 ovarian): > 100 µM | TGI (MDA-MB-231 breast): > 100 µM | TGI (HOP-62 NSCLC): > 100 µM | TGI (NCI-H522 lung): > 100 µM | TGI (U251 CNS): > 100 µM | TGI (SNB-75 CNS): > 100 µM | TGI (BT-549 breast): > 100 µM

COc1c(O)c(C=O)c2c(O)c(-c3c(C)cc4c(C(C)C)c(OC)c(O)c(C=O)c4c3O)c(C)cc2c1C(C)C
TGI (SN12C renal): 8.45 µM | TGI (SW-620 colon): 17.7 µM | TGI (OVCAR-8 ovarian): 16.4 µM | TGI (HOP-62 NSCLC): 9.18 µM | TGI (NCI-H522 lung): 6.56 µM | TGI (U251 CNS): 12.2 µM | TGI (SNB-75 CNS): 9.38 µM | TGI (DMS 114 small cell lung): 6.93 µM

COc1ccc(CC(N)c2ccc(OC)cc2)cc1 (stereo unspecified)
TGI (SN12C renal): > 100 µM | TGI (SW-620 colon): > 100 µM | TGI (OVCAR-8 ovarian): > 100 µM | TGI (MDA-MB-231 breast): > 100 µM | TGI (HOP-62 NSCLC): > 100 µM | TGI (NCI-H522 lung): > 100 µM | TGI (U251 CNS): > 100 µM | TGI (SNB-75 CNS): > 100 µM | TGI (BT-549 breast): > 100 µM

CSCCC(N)C(=O)NCCNc1ccc(NCCNC(=O)C(N)CCSC)c2c1C(=O)c1ccccc1C2=O (stereo unspecified)
TGI (SN12C renal): 2.55 µM | TGI (SW-620 colon): 3.83 µM | TGI (OVCAR-8 ovarian): 4.17 µM | TGI (MDA-MB-231 breast): 2.81 µM | TGI (HOP-62 NSCLC): 5.22 µM | TGI (NCI-H522 lung): 1.3 µM | TGI (U251 CNS): 2.44 µM | TGI (SNB-75 CNS): 3.65 µM | TGI (BT-549 breast): 2.93 µM

CCNCCCn1c2c(c3ccc(Cl)cc3c1=O)C(=O)c1cc(OC)cnc1-2
GI50 (SN12C renal): 0.675 µM | TGI (SN12C renal): 2.79 µM | GI50 (SW-620 colon): 0.0316 µM | TGI (SW-620 colon): 1.76 µM | GI50 (OVCAR-8 ovarian): 0.694 µM | TGI (OVCAR-8 ovarian): 3.22 µM | GI50 (MDA-MB-231 breast): 1.5 µM | TGI (MDA-MB-231 breast): 3.23 µM | GI50 (HOP-62 NSCLC): 0.122 µM | TGI (HOP-62 NSCLC): 1.43 µM | GI50 (NCI-H522 lung): 0.263 µM | TGI (NCI-H522 lung): 24.5 µM | GI50 (U251 CNS): 0.219 µM | TGI (U251 CNS): 1.73 µM | GI50 (SNB-75 CNS): 0.262 µM | TGI (SNB-75 CNS): 1.64 µM | GI50 (BT-549 breast): 0.813 µM | TGI (BT-549 breast): 20.3 µM

Cc1cc(F)ccc1S(=O)(=O)Nc1cc(-c2c(O)ccc3ccccc23)c(O)c2ccccc12
GI50 (SN12C renal): 2.8 µM | TGI (SN12C renal): 15.5 µM | GI50 (SW-620 colon): 2.48 µM | TGI (SW-620 colon): 11.8 µM | GI50 (OVCAR-8 ovarian): 3.65 µM | TGI (OVCAR-8 ovarian): > 100 µM | GI50 (MDA-MB-231 breast): 2.64 µM | TGI (MDA-MB-231 breast): 13.8 µM | GI50 (HOP-62 NSCLC): 3.27 µM | TGI (HOP-62 NSCLC): 18.7 µM | GI50 (NCI-H522 lung): 1.77 µM | TGI (NCI-H522 lung): 4.77 µM | GI50 (U251 CNS): 3.67 µM | TGI (U251 CNS): 15.5 µM | GI50 (SNB-75 CNS): 2.32 µM | TGI (SNB-75 CNS): 11.7 µM | GI50 (BT-549 breast): 3.04 µM | TGI (BT-549 breast): 10.8 µM

CC1(C)CC(O)C(C)(C)[C@@H](O)C1 (stereo partly specified)
TGI (SN12C renal): > 100 µM | TGI (SW-620 colon): > 100 µM | TGI (OVCAR-8 ovarian): > 100 µM | TGI (MDA-MB-231 breast): > 100 µM | TGI (HOP-62 NSCLC): > 100 µM | TGI (NCI-H522 lung): > 100 µM | TGI (U251 CNS): > 100 µM | TGI (SNB-75 CNS): > 100 µM | TGI (BT-549 breast): > 100 µM

COc1cccc(CCN2CCN(CCCc3ccccc3)CC2)c1
TGI (SN12C renal): > 100 µM | TGI (SW-620 colon): > 100 µM | TGI (OVCAR-8 ovarian): > 100 µM | TGI (MDA-MB-231 breast): > 100 µM | TGI (HOP-62 NSCLC): > 100 µM | TGI (NCI-H522 lung): 67.9 µM | TGI (U251 CNS): > 100 µM | TGI (SNB-75 CNS): > 100 µM | TGI (BT-549 breast): > 100 µM

OCC(O)C(O)C(O)C(O)c1nc2ccc(Cl)cc2[nH]1 (stereo unspecified)
TGI (SN12C renal): > 100 µM | TGI (SW-620 colon): > 100 µM | TGI (OVCAR-8 ovarian): > 100 µM | TGI (MDA-MB-231 breast): > 100 µM | TGI (HOP-62 NSCLC): > 100 µM | TGI (NCI-H522 lung): > 100 µM | TGI (U251 CNS): > 100 µM | TGI (SNB-75 CNS): > 100 µM | TGI (BT-549 breast): > 100 µM

C[N+](C)(C)c1ccc(C(N)C(=O)O)cc1 (stereo unspecified)
TGI (SN12C renal): > 100 µM | TGI (SW-620 colon): > 100 µM | TGI (OVCAR-8 ovarian): > 100 µM | TGI (MDA-MB-231 breast): > 100 µM | TGI (HOP-62 NSCLC): > 100 µM | TGI (NCI-H522 lung): > 100 µM | TGI (U251 CNS): > 100 µM | TGI (SNB-75 CNS): > 100 µM | TGI (BT-549 breast): > 100 µM

NC(=O)NNc1nc(-c2ccccc2)cs1
TGI (SN12C renal): > 100 µM | TGI (SW-620 colon): > 100 µM | TGI (OVCAR-8 ovarian): > 100 µM | TGI (MDA-MB-231 breast): > 100 µM | TGI (HOP-62 NSCLC): > 100 µM | TGI (NCI-H522 lung): > 100 µM | TGI (U251 CNS): > 100 µM | TGI (SNB-75 CNS): > 100 µM | TGI (BT-549 breast): > 100 µM

ClCCCc1ccccc1C1=NCCc2ccccc21
TGI (SN12C renal): > 100 µM | TGI (SW-620 colon): > 100 µM | TGI (OVCAR-8 ovarian): > 100 µM | TGI (MDA-MB-231 breast): > 100 µM | TGI (HOP-62 NSCLC): > 100 µM | TGI (NCI-H522 lung): > 100 µM | TGI (U251 CNS): > 100 µM | TGI (SNB-75 CNS): > 100 µM | TGI (BT-549 breast): > 100 µM

CC(=O)Oc1cc2c(cc1OC(C)=O)OCC(c1ccc(C)cc1)C2 (stereo unspecified)
TGI (SN12C renal): 33.2 µM | TGI (SW-620 colon): 47.3 µM | TGI (OVCAR-8 ovarian): 68.6 µM | TGI (HOP-62 NSCLC): 44.4 µM | TGI (NCI-H522 lung): 6.86 µM | TGI (U251 CNS): 38.8 µM | TGI (SNB-75 CNS): 32.3 µM | TGI (DMS 114 small cell lung): 18.7 µM

CC(=O)OCC1OC(SC2=N/C(=C\c3ccc(Br)s3)C(=O)N2CN2CCOCC2)C(OC(C)=O)C(OC(C)=O)C1OC(C)=O (stereo unspecified)
TGI (SN12C renal): 32.2 µM | TGI (SW-620 colon): 38.9 µM | TGI (OVCAR-8 ovarian): 37 µM | TGI (MDA-MB-231 breast): > 100 µM | TGI (HOP-62 NSCLC): 56.6 µM | TGI (NCI-H522 lung): 23.6 µM | TGI (U251 CNS): 32.2 µM | TGI (SNB-75 CNS): 68.3 µM | TGI (BT-549 breast): 38.8 µM
